# Laboratory results as given in a melting point compilation (Tetko et al.).
row,Compound,melting point
1,CC(C)(C)C(=O)NO,169 to 171 °C
2,Nc1cc(NC(=O)c2ccccc2I)ccc1F,202 to 204 °C
3,O=C(O)CNC(=O)NCc1ccc(F)cc1,169 to 171 °C
4,c1ccc(Nc2ccccn2)cc1,78 to 82 °C
5,O=C(O)CNC(c1ccccc1)C(F)(F)F (stereo unspecified),191 to 193 °C
6,Cc1cc(C(=O)O)c(C)n1C(C)C,178 to 180 °C
7,O=C(O)c1ccc(NC2CC2)nc1,178 to 180 °C
8,O=C(O)c1ccccc1Nc1ccc(SC(F)F)cc1,116 to 118 °C
9,CCCc1nc2c(c(=O)[nH]1)CCN(Cc1ccccc1)C2,171 to 173 °C
10,O=[N+]([O-])c1ccccc1OCC1CO1 (stereo unspecified),52 to 54 °C
11,CN1C(=O)CCC(CO)C1c1cccc(Cl)c1 (stereo unspecified),122 to 124 °C
12,O=C(O)CCc1ccc2c(c1)OCCO2,64 to 66 °C
13,Cc1cc(C)n(CCS(C)(=O)=O)n1,90 to 92 °C
14,O=C(CCl)NC1CCN(C(=O)C2CCCCC2)CC1,133 to 135 °C
15,Cc1c(C=O)c2ccccn2c1C=O,214 to 216 °C
16,Cc1cc(Cl)nc(-c2ccccn2)n1,70 to 72 °C
17,CCCn1c(=O)[nH]c2ccccc21,96 to 100 °C
18,O=S(=O)(Cl)c1ccc(OCC(F)(F)F)nc1,55 to 57 °C
19,C/C(=N\O)c1cc(C(=O)O)c[nH]c1=O,281 to 283 °C
20,O=C(O)c1ccc(F)c(S(=O)(=O)N2CCCC2)c1,223 to 225 °C
21,Cn1c(CC(N)=NO)nc2ccccc21,240 to 242 °C
22,O=C(O)CCC1NC(=O)N(c2ccc(Cl)cc2)C1=O (stereo unspecified),212 to 214 °C
23,CCOC(=O)c1sc2nc(C(C)Cl)[nH]c(=O)c2c1C (stereo unspecified),167 to 169 °C
24,C#CCNC(=O)CC#N,108 to 110 °C

row,Compound,melting point
1,CNc1nc(C)cc(C)c1C#N,147 to 149 °C
2,COCCN(C(C)=O)c1nc(CCl)cs1,98 to 100 °C
3,Nc1ccc(F)c(-n2nnnc2C2CC2)c1,93 to 95 °C
4,CN(C)C(=O)c1ccc(Cl)c(S(=O)(=O)Cl)c1,106 to 108 °C
5,N#Cc1ccc(N2CCOC2=O)cc1,149 to 151 °C
6,O=C(O)CSc1nccs1,151 to 153 °C
7,FC(F)n1ccnc1COc1ccc(Br)cc1,61 to 63 °C
8,COC(=O)C(Br)CN1C(=O)c2ccccc2C1=O (stereo unspecified),99 to 101 °C
9,Cc1cc(C(=O)O)nn1-c1ccc(Cl)cc1,139 to 141 °C
10,O=C(CN1CCNCC1)NC1CCCCC1,99 to 101 °C
11,CN(C)c1ccc(C(N)=NO)cc1,169 to 171 °C
12,Cc1c(C(=O)O)oc2c1C(=O)CCC2,227 to 229 °C
13,O=C(CCl)Nc1ccc2c(c1)CCC2,112 to 114 °C
14,Nc1ncccc1-c1ccccc1,103 to 105 °C
15,O=[N+]([O-])c1ccc(Cl)c(CCl)c1,61 to 63 °C
16,Cn1nc(C(=O)O)c(=O)c2ccccc21,244 to 246 °C
17,CC(=O)NC1CNc2ccccc2C1 (stereo unspecified),124 to 126 °C
18,CCS(=O)(=O)CCn1ccc(N)n1,53 to 55 °C
19,COc1ncnc(N(C)C)c1N,69 to 71 °C
20,CC(=O)c1ccc(-c2ccncc2)cc1,93 to 95 °C
21,O=C(O)/C=C/c1cc(Cl)c2c(c1)OCCO2,261 to 263 °C
22,NCc1ccc(N2CCOCC2)c(F)c1,36 to 38 °C
23,CC(C)NC(=O)Nc1ccccc1N,317 to 319 °C
24,CC(=O)Nc1nc(C)c(S(=O)(=O)Cl)s1,158 to 160 °C

row,Compound,melting point
1,CNC(C(=O)O)c1ccc(F)cc1 (stereo unspecified),276 to 278 °C
2,Cc1oc2nc[nH]c(=O)c2c1C(=O)O,149 to 151 °C
3,Cn1cc(N2CCC(N)C2=O)cn1 (stereo unspecified),131 to 133 °C
4,O=C1Cc2ncccc2N1,189 to 191 °C
5,N#CCS(=O)(=O)c1ccc(C(=O)O)cc1,236 to 238 °C
6,Cc1nncn1-c1cccc(N)c1,109 to 111 °C
7,O=C(O)c1ccc2c(c1)-c1ccccc1C2,264 to 266 °C
8,N#Cc1ccc(-c2csc(N)n2)cc1,267 to 269 °C
9,CCOc1ccccc1-c1nnc(S)n1N,153 to 155 °C
10,Oc1ccc(Nc2nnns2)cc1,159 to 161 °C
11,NS(=O)(=O)c1ccc(N2CCC(C(=O)O)CC2)c([N+](=O)[O-])c1,181 to 183 °C
12,O=C1CC(c2ccccc2F)C(=O)N1 (stereo unspecified),97 to 99 °C
13,O=C1CC(NC(=O)C(F)(F)F)c2ccsc21 (stereo unspecified),133 to 135 °C
14,Cc1ccc(S(=O)(=O)Nc2ccccc2C(=O)O)cc1,231 to 233 °C
15,Cc1cc(C=O)ccc1[N+](=O)[O-],65 to 67 °C
16,Cc1nc(N)nc(Cl)c1Br,189 to 191 °C
17,Cc1ccc(Cn2ncc3c(C(=O)O)cc(C)nc32)cc1,190 to 192 °C
18,CC(=O)N(c1nc(C=O)cs1)C1CC1,112 to 114 °C
19,CN(C)C(=O)Sc1cnn(-c2ccccc2F)c1,65 to 67 °C
20,CCN(CC)S(=O)(=O)c1ccc(N2CC(C(=O)O)CC2=O)cc1 (stereo unspecified),123 to 127 °C
21,COc1ccc(Br)cc1C(=O)O,112 to 114 °C
22,O=Cc1coc(-c2ccccc2)n1,90 to 92 °C
23,CC(=O)SC(C(=O)O)c1ccccc1 (stereo unspecified),79 to 81 °C
